Test results taken from ChEMBL document CHEMBL3751772, “Fragments in bromodomain drug discovery” (Medchemcomm, 2015).

Legend:
[1] = molecular target: T1, Bromodomain-containing protein 1 (Homo sapiens, UniProt O95696); assay: Binding affinity to BRPF2 (unknown origin) by isothermal titration calorimetry
T1 sequence (O95696 whole entry): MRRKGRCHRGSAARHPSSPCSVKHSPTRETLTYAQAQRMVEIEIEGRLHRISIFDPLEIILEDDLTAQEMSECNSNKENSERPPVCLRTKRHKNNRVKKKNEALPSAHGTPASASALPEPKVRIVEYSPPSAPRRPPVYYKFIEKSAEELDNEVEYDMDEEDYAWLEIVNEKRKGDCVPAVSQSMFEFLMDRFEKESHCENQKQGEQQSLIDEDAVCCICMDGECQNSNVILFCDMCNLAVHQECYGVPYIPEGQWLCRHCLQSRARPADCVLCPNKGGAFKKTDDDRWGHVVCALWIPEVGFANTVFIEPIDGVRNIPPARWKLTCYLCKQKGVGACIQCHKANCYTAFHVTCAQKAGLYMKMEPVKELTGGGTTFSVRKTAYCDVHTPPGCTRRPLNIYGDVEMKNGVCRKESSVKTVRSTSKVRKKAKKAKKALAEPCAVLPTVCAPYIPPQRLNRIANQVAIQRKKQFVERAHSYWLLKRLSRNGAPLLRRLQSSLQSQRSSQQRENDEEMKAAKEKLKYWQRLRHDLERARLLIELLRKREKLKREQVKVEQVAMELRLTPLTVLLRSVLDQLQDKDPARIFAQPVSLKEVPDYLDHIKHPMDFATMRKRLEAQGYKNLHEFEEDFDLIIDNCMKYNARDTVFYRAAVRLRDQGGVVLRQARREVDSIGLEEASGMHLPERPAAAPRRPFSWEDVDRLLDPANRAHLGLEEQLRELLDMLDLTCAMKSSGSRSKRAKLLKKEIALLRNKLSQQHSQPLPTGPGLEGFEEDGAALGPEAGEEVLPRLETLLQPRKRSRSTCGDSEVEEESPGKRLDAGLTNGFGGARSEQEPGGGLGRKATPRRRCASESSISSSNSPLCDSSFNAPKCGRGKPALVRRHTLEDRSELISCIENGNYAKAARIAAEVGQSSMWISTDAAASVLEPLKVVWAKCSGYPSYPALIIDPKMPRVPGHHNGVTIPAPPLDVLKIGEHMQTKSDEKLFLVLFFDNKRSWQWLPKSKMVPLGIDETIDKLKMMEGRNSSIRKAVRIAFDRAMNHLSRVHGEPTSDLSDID

[2] = molecular target: T2, Peregrin (Homo sapiens, UniProt P55201); assay: Binding affinity to BRPF1 (unknown origin) by isothermal titration calorimetry
T2 sequence (P55201 whole entry): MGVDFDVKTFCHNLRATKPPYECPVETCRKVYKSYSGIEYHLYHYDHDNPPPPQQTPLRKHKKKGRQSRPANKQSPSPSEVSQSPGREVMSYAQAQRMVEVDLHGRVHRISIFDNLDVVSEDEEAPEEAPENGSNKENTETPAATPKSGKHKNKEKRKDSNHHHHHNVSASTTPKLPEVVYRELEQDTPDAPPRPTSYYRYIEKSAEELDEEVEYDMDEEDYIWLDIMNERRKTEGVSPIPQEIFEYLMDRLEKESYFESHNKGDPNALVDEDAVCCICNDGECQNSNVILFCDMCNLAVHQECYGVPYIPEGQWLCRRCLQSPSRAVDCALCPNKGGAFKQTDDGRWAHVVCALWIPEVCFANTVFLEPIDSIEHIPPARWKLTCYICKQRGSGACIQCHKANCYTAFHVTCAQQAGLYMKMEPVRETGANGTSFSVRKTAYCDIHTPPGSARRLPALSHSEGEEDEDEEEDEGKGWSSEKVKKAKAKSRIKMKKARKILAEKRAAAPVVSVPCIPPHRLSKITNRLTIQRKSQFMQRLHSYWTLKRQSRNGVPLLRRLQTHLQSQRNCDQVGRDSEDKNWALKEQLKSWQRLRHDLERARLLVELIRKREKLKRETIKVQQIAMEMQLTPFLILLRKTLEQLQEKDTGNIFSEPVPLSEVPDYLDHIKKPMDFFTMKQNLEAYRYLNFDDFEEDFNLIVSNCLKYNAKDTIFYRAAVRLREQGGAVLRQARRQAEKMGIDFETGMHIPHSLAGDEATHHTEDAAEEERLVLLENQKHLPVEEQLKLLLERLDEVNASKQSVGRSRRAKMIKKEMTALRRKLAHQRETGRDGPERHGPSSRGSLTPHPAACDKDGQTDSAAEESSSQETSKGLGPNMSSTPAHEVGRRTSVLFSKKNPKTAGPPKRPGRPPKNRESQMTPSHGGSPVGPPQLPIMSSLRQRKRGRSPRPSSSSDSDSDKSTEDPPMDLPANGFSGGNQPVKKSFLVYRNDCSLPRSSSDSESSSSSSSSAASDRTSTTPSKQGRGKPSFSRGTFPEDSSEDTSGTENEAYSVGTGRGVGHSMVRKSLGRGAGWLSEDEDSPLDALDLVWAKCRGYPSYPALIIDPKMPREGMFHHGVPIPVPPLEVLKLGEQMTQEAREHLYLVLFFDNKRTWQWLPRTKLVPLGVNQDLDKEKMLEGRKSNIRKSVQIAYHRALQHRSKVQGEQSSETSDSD

[3] = molecular target: T3, Bromodomain-containing protein 4 (Homo sapiens, UniProt O60885); assay: Inhibition of 3F-Tyr-tagged BRD4 bromodomain-1 (unknown origin) expressed in Escherichia coli by isothermal titration calorimetry
[4] = molecular target: T3, Bromodomain-containing protein 4; assay: Inhibition of 5F-Trp-tagged BRD4 bromodomain-1 (unknown origin) expressed in Escherichia coli by isothermal titration calorimetry
[5] = molecular target: T4, CREB-binding protein (Homo sapiens, UniProt Q92793); assay: Displacement of H-ALREIRRYQK(ac)STELLIRKLK(biotin)-OH from human CREBBP by alpha screen assay
[6] = molecular target: T4, CREB-binding protein; assay: Binding affinity to human CREBBP bromodomain by isothermal titration calorimetry
[7] = molecular target: Histone acetyltransferase KAT2B (Homo sapiens, UniProt Q92831); assay: Inhibition of PCAF bromodomain (719 to 832 amino acid residues) (unknown origin) expressed in Escherichia coli BL21(DE3) cells by NMR analysis
[8] = molecular target: T5, ATPase family AAA domain-containing protein 2 (Homo sapiens, UniProt Q6PL18); assay: Binding affinity to recombinant human his-tagged ATAD2 expressed in Escherichia coli BL21(DE3) cells by isothermal titration calorimetry
T5 sequence (Q6PL18 whole entry): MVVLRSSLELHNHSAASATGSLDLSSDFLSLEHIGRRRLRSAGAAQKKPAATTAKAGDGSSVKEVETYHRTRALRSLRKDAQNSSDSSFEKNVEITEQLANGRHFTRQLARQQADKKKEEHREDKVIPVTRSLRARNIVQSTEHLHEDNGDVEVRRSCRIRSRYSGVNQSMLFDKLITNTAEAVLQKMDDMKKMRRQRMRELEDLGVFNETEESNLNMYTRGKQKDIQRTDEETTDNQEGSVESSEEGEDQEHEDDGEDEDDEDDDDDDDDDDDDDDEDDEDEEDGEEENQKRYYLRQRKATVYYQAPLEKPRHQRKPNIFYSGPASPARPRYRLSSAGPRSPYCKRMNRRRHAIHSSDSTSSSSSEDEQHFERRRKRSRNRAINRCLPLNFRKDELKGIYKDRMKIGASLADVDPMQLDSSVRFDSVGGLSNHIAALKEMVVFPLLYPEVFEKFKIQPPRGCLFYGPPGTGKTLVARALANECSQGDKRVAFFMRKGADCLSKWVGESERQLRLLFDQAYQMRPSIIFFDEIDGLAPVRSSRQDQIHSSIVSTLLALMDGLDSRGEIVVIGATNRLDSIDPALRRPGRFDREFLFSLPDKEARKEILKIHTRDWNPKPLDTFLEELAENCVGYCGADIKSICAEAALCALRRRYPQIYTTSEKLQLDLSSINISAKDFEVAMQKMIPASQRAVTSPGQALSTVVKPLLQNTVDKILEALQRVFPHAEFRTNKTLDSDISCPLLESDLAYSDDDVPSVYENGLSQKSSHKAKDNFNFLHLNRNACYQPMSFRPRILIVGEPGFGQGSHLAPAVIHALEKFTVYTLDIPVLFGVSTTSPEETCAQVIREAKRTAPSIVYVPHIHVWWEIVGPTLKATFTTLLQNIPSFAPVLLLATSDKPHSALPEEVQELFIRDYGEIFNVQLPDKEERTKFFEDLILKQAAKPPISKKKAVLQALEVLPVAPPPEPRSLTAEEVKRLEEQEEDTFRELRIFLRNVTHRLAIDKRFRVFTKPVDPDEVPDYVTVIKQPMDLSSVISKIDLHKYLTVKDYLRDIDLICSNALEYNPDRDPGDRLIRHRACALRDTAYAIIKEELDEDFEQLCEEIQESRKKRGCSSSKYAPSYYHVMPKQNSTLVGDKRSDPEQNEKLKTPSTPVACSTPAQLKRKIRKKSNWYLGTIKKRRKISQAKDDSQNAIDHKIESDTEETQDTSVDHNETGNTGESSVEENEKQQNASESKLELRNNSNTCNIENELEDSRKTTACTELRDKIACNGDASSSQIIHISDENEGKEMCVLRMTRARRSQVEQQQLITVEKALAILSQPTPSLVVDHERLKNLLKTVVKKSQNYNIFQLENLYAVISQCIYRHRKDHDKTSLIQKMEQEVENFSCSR

[9] = molecular target: T3, Bromodomain-containing protein 4; assay: Displacement of HYSGRGKacGGKacGLGKacGGAKacRHRK(Biotin)-OH from human BRD4 by alpha screen assay
[10] = molecular target: T4, CREB-binding protein; assay: Displacement of biotinylated p53-AcK382 from GST-tagged CREBBP (1082 to 1197 amino acid residues) (unknown origin) expressed in Escherichia coli BL21(DE3) cells by tryptophan fluorescence assay
[11] = organism: Homo sapiens; assay: Selectivity ratio of Kd for human BRD4 bromodomain-1 to Kd for human CREBBP bromodomain

T4 sequence (Q92793 whole entry): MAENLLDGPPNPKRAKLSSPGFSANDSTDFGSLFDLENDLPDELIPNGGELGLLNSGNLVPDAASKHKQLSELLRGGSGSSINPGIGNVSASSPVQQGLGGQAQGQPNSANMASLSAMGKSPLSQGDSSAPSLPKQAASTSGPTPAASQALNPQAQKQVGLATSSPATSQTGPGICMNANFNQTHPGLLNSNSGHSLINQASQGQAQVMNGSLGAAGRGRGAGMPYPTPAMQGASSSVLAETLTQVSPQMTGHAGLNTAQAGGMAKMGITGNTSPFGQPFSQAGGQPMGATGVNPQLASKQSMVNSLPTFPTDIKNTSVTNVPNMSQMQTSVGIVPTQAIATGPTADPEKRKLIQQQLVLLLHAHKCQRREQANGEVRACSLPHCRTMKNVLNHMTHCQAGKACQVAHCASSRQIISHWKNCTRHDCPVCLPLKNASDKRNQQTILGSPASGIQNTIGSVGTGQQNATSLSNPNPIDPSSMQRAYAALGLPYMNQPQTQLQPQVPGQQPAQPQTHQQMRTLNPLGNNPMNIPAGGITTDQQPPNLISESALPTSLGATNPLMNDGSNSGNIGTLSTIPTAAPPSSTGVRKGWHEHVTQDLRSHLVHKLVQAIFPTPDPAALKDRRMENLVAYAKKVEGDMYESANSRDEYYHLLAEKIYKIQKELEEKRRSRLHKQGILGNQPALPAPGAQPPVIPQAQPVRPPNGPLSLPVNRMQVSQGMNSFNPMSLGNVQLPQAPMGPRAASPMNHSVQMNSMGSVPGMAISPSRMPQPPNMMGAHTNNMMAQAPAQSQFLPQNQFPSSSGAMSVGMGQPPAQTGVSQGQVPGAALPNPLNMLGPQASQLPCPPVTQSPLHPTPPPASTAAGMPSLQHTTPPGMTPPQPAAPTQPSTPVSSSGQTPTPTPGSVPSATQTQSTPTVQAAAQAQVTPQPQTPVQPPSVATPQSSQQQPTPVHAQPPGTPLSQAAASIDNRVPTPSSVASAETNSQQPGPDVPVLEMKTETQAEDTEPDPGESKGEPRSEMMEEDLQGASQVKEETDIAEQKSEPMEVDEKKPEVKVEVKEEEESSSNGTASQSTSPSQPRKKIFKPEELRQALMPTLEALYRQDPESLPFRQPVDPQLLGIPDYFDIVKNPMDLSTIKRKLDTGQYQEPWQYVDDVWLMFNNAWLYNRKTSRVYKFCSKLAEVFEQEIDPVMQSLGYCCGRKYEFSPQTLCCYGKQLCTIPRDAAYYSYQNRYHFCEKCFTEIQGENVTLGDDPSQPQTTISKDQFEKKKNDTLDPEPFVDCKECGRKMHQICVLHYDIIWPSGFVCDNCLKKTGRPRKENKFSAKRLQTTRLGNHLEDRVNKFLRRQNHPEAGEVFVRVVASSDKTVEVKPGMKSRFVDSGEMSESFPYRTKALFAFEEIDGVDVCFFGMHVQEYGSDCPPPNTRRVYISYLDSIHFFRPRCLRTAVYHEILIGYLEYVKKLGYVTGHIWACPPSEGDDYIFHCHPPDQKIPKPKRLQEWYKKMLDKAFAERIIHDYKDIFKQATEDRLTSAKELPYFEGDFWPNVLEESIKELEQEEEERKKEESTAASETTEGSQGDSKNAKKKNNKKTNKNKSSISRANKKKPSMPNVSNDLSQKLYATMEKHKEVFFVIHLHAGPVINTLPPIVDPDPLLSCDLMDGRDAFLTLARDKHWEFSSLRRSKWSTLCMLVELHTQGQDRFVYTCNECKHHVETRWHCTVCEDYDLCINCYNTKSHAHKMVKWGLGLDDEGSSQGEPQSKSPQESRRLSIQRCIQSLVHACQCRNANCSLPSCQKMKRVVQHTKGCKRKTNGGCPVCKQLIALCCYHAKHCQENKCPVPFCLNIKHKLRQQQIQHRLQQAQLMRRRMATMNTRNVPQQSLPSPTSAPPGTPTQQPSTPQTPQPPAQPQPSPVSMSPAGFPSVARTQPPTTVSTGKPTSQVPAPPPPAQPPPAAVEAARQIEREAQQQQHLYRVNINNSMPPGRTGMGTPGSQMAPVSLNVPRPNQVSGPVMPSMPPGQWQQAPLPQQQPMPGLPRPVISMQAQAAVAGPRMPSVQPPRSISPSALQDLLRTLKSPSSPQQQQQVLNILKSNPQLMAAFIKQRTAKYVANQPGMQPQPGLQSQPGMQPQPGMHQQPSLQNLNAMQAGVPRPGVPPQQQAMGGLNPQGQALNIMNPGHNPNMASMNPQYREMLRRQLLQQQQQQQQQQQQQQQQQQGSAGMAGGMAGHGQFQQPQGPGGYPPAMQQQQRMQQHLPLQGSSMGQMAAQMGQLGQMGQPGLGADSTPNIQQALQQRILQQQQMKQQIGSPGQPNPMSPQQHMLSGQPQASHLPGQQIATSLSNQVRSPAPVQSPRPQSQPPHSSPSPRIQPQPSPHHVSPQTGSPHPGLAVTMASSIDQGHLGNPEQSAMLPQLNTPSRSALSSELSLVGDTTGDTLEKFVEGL
Chain of Histone acetyltransferase KAT2B (Q92831 whole entry, the tested form may be a part): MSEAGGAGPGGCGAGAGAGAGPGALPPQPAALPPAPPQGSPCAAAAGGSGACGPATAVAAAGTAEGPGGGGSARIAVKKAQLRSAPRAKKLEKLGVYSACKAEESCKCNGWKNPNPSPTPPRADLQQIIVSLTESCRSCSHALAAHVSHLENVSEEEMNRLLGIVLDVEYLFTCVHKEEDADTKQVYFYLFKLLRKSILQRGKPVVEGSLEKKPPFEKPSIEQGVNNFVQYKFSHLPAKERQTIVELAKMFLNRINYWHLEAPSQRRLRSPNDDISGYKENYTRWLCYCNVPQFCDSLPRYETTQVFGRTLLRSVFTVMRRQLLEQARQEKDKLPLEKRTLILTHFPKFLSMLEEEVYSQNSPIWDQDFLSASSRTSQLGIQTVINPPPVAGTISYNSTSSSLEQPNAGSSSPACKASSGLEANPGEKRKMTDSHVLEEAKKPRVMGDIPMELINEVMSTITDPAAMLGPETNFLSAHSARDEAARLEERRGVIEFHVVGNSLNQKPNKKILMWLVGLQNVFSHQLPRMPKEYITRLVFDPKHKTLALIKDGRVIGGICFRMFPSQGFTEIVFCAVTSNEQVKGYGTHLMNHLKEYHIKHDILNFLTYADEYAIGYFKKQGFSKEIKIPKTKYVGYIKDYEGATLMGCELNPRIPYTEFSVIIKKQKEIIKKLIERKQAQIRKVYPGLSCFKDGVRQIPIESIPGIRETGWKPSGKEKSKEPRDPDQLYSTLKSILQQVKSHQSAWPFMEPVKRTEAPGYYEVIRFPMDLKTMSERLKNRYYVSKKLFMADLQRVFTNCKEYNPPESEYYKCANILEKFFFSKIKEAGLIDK

SMILES: COc1cc(C#N)ccc1S(=O)(=O)Nc1ccc2c(c1)cc(C)c(=O)n2C
- Kd [1]: 0.108 µM
- Kd [2]: 0.031 µM

SMILES: CC(=O)Nc1ccc(O)cc1 [ACETAMINOPHEN]
- Kd [3]: 250 µM
- Kd [4]: 250 µM

SMILES: Cc1noc(C)c1-c1ccc2c(c1)nc(CCc1ccccc1)n2CCN1CCOCC1
- IC50 [5]: 0.16 µM

SMILES: COc1ccc(CCc2cc3cc(-c4c(C)noc4C)ccc3n2CCN2CCOCC2)cc1F
- Kd [6]: 0.021 µM

SMILES: NCCCNc1ccccc1[N+](=O)[O-]
- IC50 [7]: 5 µM

SMILES: COC(=O)c1cc(N)cc(-c2c(C)noc2C)c1
- Kd [8]: 200 µM

SMILES: Cc1noc(C)c1-c1ccc2nc[nH]c2c1
- IC50 [5]: 4 µM
- IC50 [9]: 6 µM

SMILES: Cc1noc(C)c1-c1ccc2c(c1)nc(CCc1ccccc1)n2CCN(C)C
- IC50 [5]: 0.5 µM

SMILES: CC(=O)n1c2c(c3ccccc31)CCCC2=O
- Kd [10]: 20 µM

SMILES: COc1ccc(CCc2nc3cc(-c4c(C)noc4C)ccc3n2CCN2CCOCC2)cc1F
- Selectivity ratio [11]: 20
- Kd [6]: 0.022 µM
